Results on two molecules are retold here after patent publication US10143747B2, “Breast cancer therapeutics” (IMBA—INSTITUT FÜR MOLEKULARE BIOTECHNOLOGIE GMBH, priority 2010, dated 2018).

One assay relates to mammary epithelial cells. The assay can be described thus: Epithelial proliferation in mammary glands by in situ Ki67 immunostaining. In kind it is in vivo, mouse. The protocol:
(§1) a,b, Induction of RANKL expression by the progesterone-derivative MPA. Nulliparous wild type females were s.c. implanted with slow-release MPA pellets or treated with surgery sham. a, RANKL mRNA was determined in purified mammary epithelial cells by qRT-PCR three days after implantation. Data are shown as fold change compared to sham treatment (+/−sem) (n=3). b, In situ […] immunostaining of progesterone receptor (PR, red) and RANKL (green) in mammary epithelial cells after 3d MPA treatment. c, Induction of soluble RANKL protein assayed on isolated mammary gland epithelial cells from control, but not in prolactin receptor mutant (PRL-R KO) females on day 3 after s.c. MPA implantation. Mammary glands from sham operated control litter-mates and PRL-R KO females are shown as controls. d, Epithelial proliferation in mammary glands of control littermates and RANK^Δmam females 3 days after sham treatment and MPA implantation. Proliferation was determined by in situ Ki67 immunostaining. e,f, Marked increase of the stem cell-enriched CD24^+CD49^high population (MaSC) in MPA-treated mammary glands in control but not in RANK^Δmam mammary glands. e, Representative FACS profiles showing CD24 and CD49 expression of lineage negative (CD31^− (endothelial cells) CD45^− (hematopoietic cells) […] (erythroid cells)) of mammary MaSCs from MPA- or sham-treated 8-week old virgin females. f, Quantification of MaSC-enriched CD24^+CD49^high population from mammary glands of MPA- or sham-treated virgin RANK^Δmam and littermate control females. For all MaSCs experiments mice were treated with MPA for 3 days. n=4 per group+/−sem. *P<0.05; ***P<0.001 (Student's t-test).
At least 1000 mammary gland epithelial cells were counted per mouse. n=3 mice per genotype. **P<0.005; ***P<0.001 (Student's t-test). b, Quantification of in situ Ki67 immunostained cells per acinus from mammary glands of control littermate and RANK^Δmam females on day 3 after MPA s.c. implantation. […] At least 1000 cells were counted per mammary gland. n=3 per genotype. In b, and c, data are shown as percentage of acini/ducts with low (<20% of epithelial cells are Ki67^+), medium (20-80% of epithelial cells are Ki67^+) and high (>80% of epithelial cells are Ki67^+) numbers of proliferating cells+/−sem. ***P<0.001; *P<0.03 (Student's t-test). d, Epithelial proliferation in mammary glands of control littermates and RANK^Δmam females 1 day after i.p. injection of PBS or RANKL (1 μg). Proliferation was determined in situ Ki67 immunostaining. Magnifications×40. e, Quantification of epithelial proliferation 1 day after i.p. injection of PBS or RANKL (1 μg). Mean percentages of Ki67 positive cells+/−sem are shown. *P<0.03; n=5 (Student's t-test).
For histological analysis, 5 μm sections were cut and stained with hematoxylin and eosin (H&E). Whole-mount staining of mammary glands was performed as described^8. For immunoperoxidase staining paraffin-embedded sections were […] and antigenic epitopes exposed using a 10 mM citrate buffer or microwaving. […] Histomorphometric indices (proliferation and apoptosis) were calculated as the number of positive epithelial cells divided by the total number of epithelial cells, with no fewer than 1000 nuclei for Ki67 stainings and no fewer than 5000 cells for active Caspase 3 staining counted per section. […]

The next assay relates to RANKL. Kind of assay: RANKL mRNA in purified mammary epithelial cells by qRT-PCR after MPA pellet implantation. It is filed as in vivo, mouse. As to the method: as §1
a-d, Induction of RANKL expression by the progesterone-derivative MPA. […] Numbers indicate amino acid residues. c, Expression of total (t) RANKL, RANKL1, RANKL2, and RANKL3 mRNA in purified mammary epithelial cells after three days MPA treatment. β-actin is shown as a control. d, Representative agarose gel of RT-PCR products as in c. e, mRNA expression of various proteases known to shed RANKL from the surface of cells. mRNA was determined in purified mammary epithelial cells by qRT-PCR three days after MPA implantation. […]
a,b, MPA induces RANKL expression in mammary epithelial cells. Nulliparous wild type females were treated with oral gavage of DMBA or oil vehicle, s.c. implanted with slow-release MPA pellets, or treated with sham surgery. a, RANKL mRNA was determined in purified mammary epithelial cells by qRT-PCR 3 days after implantation/oral gavage. […]

For `CC(=O)O[C@]1(C(C)=O)CC[C@H]2[C@@H]3C[C@H](C)C4=CC(=O)CC[C@]4(C)[C@H]3CC[C@@]21C` [MPA, medroxyprogesterone acetate], the “MPA-induced proliferation of mammary epithelial cells” value in the assay on mammary epithelial cells (RANKΔmam females, 3 days after MPA implantation) is on record as “significantly reduced”. In the assay with mammary epithelial cells (RANKΔmam females, day 3 after MPA s.c. implantation), the “acini with very low proliferation rates (Ki67)” value is recorded as “more than 60%”. Besides, the “acini with medium to high proliferation (Ki67)” value with mammary epithelial cells (control females, day 3 after MPA s.c. implantation) was approximately 80%. Moreover, in the assay with mammary epithelial cells (wild type, 3 days after MPA implantation), the “proliferation of mammary epithelial cells” value is reported as “triggers massive proliferation”. Further, the “mRNA of proteases known to shed RANKL (MMP14, ADAM17/TACE)” value in the assay with RANKL (3 days after MPA implantation, qRT-PCR) was “induction of MMP14 and ADAM17/TACE”. Besides, in the assay on RANKL (3 days after implantation/oral gavage, qRT-PCR and Western blot), the “RANKL mRNA and protein expression in purified mammary epithelial cells” value is “induced RANKL mRNA and protein expression”. Also, the “mRNA expression of RANK, OPG, PTHrP and TRAIL in isolated mammary epithelial cells” value with RANKL (MPA pellets implanted) is on record as “not changed”. In the assay on RANKL (s.c. slow-release MPA pellets, 3 days, vs sham, wild type females), the “induction of RANKL mRNA in isolated mammary epithelial cells” value is on record as “more than 2000 fold”.

B1: RANKL: recombinant RANKL protein, ligand of RANK, used as stimulus (1 μg/ml or 1 μg i.p.) (protein, UniProt O35235 139-316, looked up)
Tumor necrosis factor ligand …: FSGAPAMMEGSWLDVAQRGKPEAQPFAHLTINAASIPSGSHKVTLSSWYHDRGWAKISNMTLSNGKLRVNQDGFYYLYANICFRHHETSGSVPTDYLQLMVYVVKTSIKIPSSHNLMKGGSTKNWSGNSEFHFYSINVGGFFKLRAGEEISIQVSNPSLLDPDQDATYFGAFKVQDID
As to B1, the “proliferation of mammary gland epithelial cells” value in the assay on mammary epithelial cells (nulliparous females, 1 day after i.p. injection of RANKL (1 μg)) is on record as “triggered proliferation of mammary gland epithelial cells via RANK”.
